≈ marks a conversion by molar mass, not a printed value.
What was measured:
Format in all cases: cell-based
[1] = test system: ATCC25922 strain (Escherichia coli); assay: Broth microdilution, antibacterial activity of the compound used alone; details: for MIC: read-out: Antibacterial activity of the compound of Formula I, ATCC25922
Text: (§1) The broth microdilution method was used to test the antibacterial effects of the compounds of the present invention against various Gram-negative bacterial strains when used alone.

[2] = test system: ATCC13883 strain (Klebsiella pneumoniae); assay: as above; details: for MIC: read-out: Antibacterial activity of the compound of Formula I, ATCC13883
Text: as §1

[3] = test system: ATCC9027 strain (Pseudomonas aeruginosa); assay: as above; details: for MIC: read-out: Antibacterial activity of the compound of Formula I, ATCC9027
Text: as §1

[4] = test system: ATCC19606 strain (Acinetobacter baumannii); assay: as above; details: for MIC: read-out: Antibacterial activity of the compound of Formula I, ATCC19606
Text: as §1

[5] = test system: ATCC25922 strain (Escherichia coli); assay: Checkerboard antibacterial synergistic activity test with polymyxin E (FIC); parameters: key: FIC≤0.5 synergy; 0.5–1 additive; 1–2 indifferent; ≥2 antagonism; details: combined with polymyxin E
In short: (§2)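 Checkerboard in MH broth: colistin dilutions 16→0.015 μg/ml × test drug 256→4 μg/ml (concentrations before adding inoculum); drug mix plus bacteria, 37° C., 16 h. FIC cut-offs: ≤0.5 synergy; 0.5–1 additive; 1–2 indifferent; ≥2 antagonism.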

[6] = test system: ATCC13883 strain (Klebsiella pneumoniae); assay: as above; parameters: key: FIC≤0.5 synergy; 0.5–1 additive; 1–2 indifferent; ≥2 antagonism; details: combined with polymyxin E
In short: as §2

[7] = test system: ATCC9027 strain (Pseudomonas aeruginosa); assay: as above; parameters: key: FIC≤0.5 synergy; 0.5–1 additive; 1–2 indifferent; ≥2 antagonism; details: combined with polymyxin E
In short: as §2

[8] = test system: ATCC19606 strain (Acinetobacter baumannii); assay: as above; parameters: key: FIC≤0.5 synergy; 0.5–1 additive; 1–2 indifferent; ≥2 antagonism; details: combined with polymyxin E
In short: as §2

Structure (SMILES) | Antibacterial activity of the compound of Formula I, ATCC25922 [1] | Antibacterial activity of the compound of Formula I, ATCC13883 [2] | Antibacterial activity of the compound of Formula I, ATCC9027 [3] | Antibacterial activity of the compound of Formula I, ATCC19606 [4] | Synergistic activity (FIC value) ATCC25922 [5] | Synergistic activity (FIC value) ATCC13883 [6] | Synergistic activity (FIC value) ATCC9027 [7] | Synergistic activity (FIC value) ATCC19606 [8] | MIC [1] | MIC [2] | MIC [3] | MIC [4]
Cn1ccc2cccc(-c3c[se]c(N=C(N)N)n3)c21 [Compound I-72] | 256 µg/mL | 256 µg/mL | 256 µg/mL | 256 µg/mL | 0.56 | 0.31 | 0.5 | 0.25 |  |  |  | 
NC(N)=Nc1nc(-c2ccccc2-c2ccccc2)co1 [Compound I-73] | 256 µg/mL | 256 µg/mL | 256 µg/mL | 256 µg/mL | 1.25 | 1.25 | 0.52 | 0.25 |  |  |  | 
NC(N)=Nc1nc(-c2cccc(-c3ccccc3)c2)cs1 [Compound I-74] |  |  |  |  | 0.39 | 0.33 | 0.62 | 0.15 | 256 µg/mL (≈ 870 µM) | 256 µg/mL (≈ 870 µM) | 256 µg/mL (≈ 870 µM) | 256 µg/mL (≈ 870 µM)
CC(=O)Nc1cc(-c2csc(N=C(N)N)n2)ccc1-c1ccccc1 [Compound I-75] | 256 µg/mL | 256 µg/mL | 256 µg/mL | 256 µg/mL | 0.38 | 0.31 | 0.31 | 0.12 |  |  |  | 
Cc1sc(N=C(N)N)nc1-c1cccc(S(C)(=O)=O)c1-c1ccccn1 [Compound I-76] | 256 µg/mL | 256 µg/mL | 256 µg/mL | 256 µg/mL | 0.5 | 0.63 | 0.56 | 0.75 |  |  |  | 
CCc1sc(N=C(N)N)nc1-c1ccccc1-c1ccncn1 [Compound I-77] | 256 µg/mL | 256 µg/mL | 256 µg/mL | 256 µg/mL | 0.63 | 0.52 | 1.25 | 0.52 |  |  |  | 
CN(C)c1ccc(-c2nc(N=C(N)N)[nH]c2Cl)c(-c2ccco2)c1 [Compound I-78] | 256 µg/mL | 256 µg/mL | 128 µg/mL | 256 µg/mL | 0.5 | 0.38 | 0.63 | 0.75 |  |  |  | 
Cc1oc(N=C(N)N)nc1-c1cccc(C#N)c1-c1cccs1 [Compound I-79] | 256 µg/mL | 256 µg/mL | 256 µg/mL | 256 µg/mL | 0.63 | 0.52 | 1.25 | 0.52 |  |  |  | 
NC(N)=Nc1nc(-c2c(F)cccc2-c2nccs2)cs1 [Compound I-80] | 256 µg/mL | 256 µg/mL | 256 µg/mL | 256 µg/mL | 0.63 | 0.52 | 1.25 | 0.52 |  |  |  | 
Cc1ccccc1Oc1ccccc1-c1csc(N=C(N)N)n1 [Compound I-81] | 256 µg/mL | 256 µg/mL | 256 µg/mL | 256 µg/mL | 0.14 | 0.09 | 0.06 | 0.31 |  |  |  | 
COc1ccc(Oc2ccccc2-c2csc(N=C(N)N)n2)c(C)c1 [Compound I-83] | 256 µg/mL | 256 µg/mL | 256 µg/mL | 256 µg/mL | 0.27 | 0.09 | 0.04 | 0.63 |  |  |  | 
NC(N)=Nc1nc(-c2ccccc2Oc2ccccc2Cl)cs1 [Compound I-84] | 256 µg/mL | 256 µg/mL | 256 µg/mL | 256 µg/mL | 0.27 | 0.09 | 0.04 | 0.63 |  |  |  | 
NC(N)=Nc1nc(-c2ccccc2Oc2ccc(Cl)cc2Cl)cs1 [Compound I-85] |  |  |  |  | 0.26 | 0.19 | 0.52 | 0.04 | 256 µg/mL (≈ 675 µM) | 256 µg/mL (≈ 675 µM) | 256 µg/mL (≈ 675 µM) | 256 µg/mL (≈ 675 µM)
NC(N)=Nc1nc(-c2ccccc2Oc2ccccc2I)cs1 [Compound I-86] |  |  |  |  | 0.04 | 0.19 | 0.04 | 0.38 | 256 µg/mL (≈ 587 µM) | 256 µg/mL (≈ 587 µM) | 256 µg/mL (≈ 587 µM) | 256 µg/mL (≈ 587 µM)
NC(N)=Nc1nc(-c2ccccc2Oc2ccc(I)cc2I)cs1 [Compound I-87] | 256 µg/mL | 256 µg/mL | 256 µg/mL | 256 µg/mL | 0.18 | 0.16 | 0.28 | 0.03 |  |  |  | 
COc1ccc(Oc2ccccc2-c2csc(N=C(N)N)n2)c(OC)c1 [Compound I-88] | 256 µg/mL | 256 µg/mL | 256 µg/mL | 256 µg/mL | 0.2 | 0.13 | 0.28 | 0.04 |  |  |  | 
Cc1sc(N=C(N)N)nc1-c1ccc(Cl)cc1Oc1ccc(Cl)cc1Cl [Compound I-89] | 256 µg/mL | 256 µg/mL | 256 µg/mL | 256 µg/mL | 0.15 | 0.13 | 0.18 | 0.02 |  |  |  | 
NC(N)=Nc1nc(-c2ccc(F)cc2Oc2ccc(Cl)cc2Cl)c(Cl)s1 [Compound I-90] | 256 µg/mL | 256 µg/mL | 256 µg/mL | 256 µg/mL | 0.15 | 0.13 | 0.18 | 0.03 |  |  |  | 
Cc1ccccc1Oc1cccc(-c2csc(N=C(N)N)n2)c1 [Compound I-91] | 128 µg/mL | 128 µg/mL | 64 µg/mL | 256 µg/mL | 0.26 | 0.19 | 0.52 | 0.04 |  |  |  | 
